What was measured:
SW480 = test: Cancer cell growth inhibition (CellTiter-Glo), SW480; type: cell-based, Human; settings: Homo sapiens; Colorectal Cancer, SW480, 72 h treatment
Description: (§1) Cell culture-based assays were used to evaluate the ability of compounds of the invention to inhibit cancer cell growth.
(§2) Cells were obtained from the American Type Culture Collection (ATCC). Cells were cultured at 37° C. with 5% CO2 in the appropriate growth medium (see table below), and harvested respectively during the logarithmic growth period and counted with hemocytometer. The cell viability was examined by trypan blue exclusion. Cell concentrations were adjusted to 5.56×10^4 cells/ml with respective medium.
(§3) Stock solutions of test compounds and positive drugs Doxorubicin (Zhejiang, Haizheng, China), Cisplatin (Nanjing Zhiyao, China) and Mitomycin (Zhejiang, Haizheng, China) were prepared in dimethyl sulphoxide (DMSO) or PBS at 20 mM.
(§4) In order to determine the IC50 for each compound, experiments were carried out in 96-well plates and the cell lines seeded at a density of 5,000 cells/well. […] All treatments were performed in triplicate. 10 μl of drug solution was added to each well and incubated for 72 hours. At the end of the incubation, 100 μl of the CellTiter-Glo Reagent were added to each well and the contents were mixed for 2 munites on an orbital shaker to induce cell lysis. The plate was incubated at room temperature for 10 minutes to stabilize luminiscent signal, and luminiscent was recorded. […] In order to calculate IC50 values, dose-responsive curves were fitted using nonlinear regression model with a sigmoidal dose response.

KB = test: Cancer cell growth inhibition (CellTiter-Glo), KB; type: cell-based, Human; settings: Homo sapiens, Oral Cancer, 72 h treatment
Description: as §1, §2, §3, §4

SK-HEP-1 = test: Cancer cell growth inhibition (CellTiter-Glo), SK-HEP-1; type: cell-based; settings: Homo sapiens, SK-HEP1; Liver Cancer, SK-HEP-1, 72 h treatment
Description: as §1, §2, §3, §4

143b = test: Cancer cell growth inhibition (CellTiter-Glo), 143b; type: cell-based; settings: Homo sapiens, Osteosarcoma, 72 h treatment
Description: as §1, §2, §3, §4

HT-29 = test: Cancer cell growth inhibition (CellTiter-Glo), HT-29; type: cell-based, Human; settings: Homo sapiens; Colorectal Cancer, HT-29, 72 h treatment
Description: as §1, §2, §3, §4

SMILES	IC50 (SW480)	IC50 (KB)	IC50 (SK-HEP-1)	IC50 (143b)	IC50 (HT-29)
O=C(CCCCCNC(=O)c1[nH]c(-c2ccc(O)cc2)cc1-c1ccsc1)NO [Example 6, N-(5-(hydroxycarbamoyl)pentyl)-5-(4-hydroxyphenyl)-3-(3-thienyl)-1H-pyrrole-2-carboxamide]	1.08 µM	1.45 µM	3.13 µM	2.72 µM	3.64 µM
O=C(CCCCCNC(=O)c1[nH]c(-c2ccccc2)cc1-c1ccc(O)cc1)NO [Example 1, N-(6-(hydroxyamino)-6-oxohexyl)-3-(4-hydroxyphenyl)-5-phenyl-1H-pyrrole-2-carboxamide]	1.73 µM	0.95 µM	4.03 µM	1.71 µM	1.42 µM
O=C(CCCCCNC(=O)c1[nH]c(-c2ccc(O)cc2)cc1-c1ccccc1)NO [Example 2, N-(6-(hydroxyamino)-6-oxohexyl)-5-(4-hydroxyphenyl)-3-phenyl-1H-pyrrole-2-carboxamide]	2.12 µM	2.23 µM	6.04 µM	5.38 µM	4.04 µM
O=C(CCCCCNC(=O)c1[nH]c(-c2ccc(O)cc2)cc1-c1ccoc1)NO [Example 5, 3-(3-furyl)-N-(5-(hydroxycarbamoyl)pentyl)-5-(4-hydroxy-phenyl)-1H-pyrrole-2-carboxamide]	0.48 µM	0.87 µM	1.84 µM	2.91 µM	3.45 µM

Source: US20150038545A1, “HYDROXYPHENYL PYRROLE COMPOUNDS CONTAINING AN HYDROXAMIC ACID AS HDAC INHIBITORS AND MEDICINAL APPLICATIONS THEREOF” (UNIVERSIDAD DEL PAÍS VASCO, priority 2011, published 2015)
